What was measured:
rats [1] = assay: Rat learned helplessness test (escape failures); format: in vivo; conditions: for No. of escape failures (mean ± S.E.): oral once daily for 10 days, ECS group, 40 avoidance tasks, N=10
Description: (§1) Particularly the forced swimming test has been used most widely in the evaluation of antidepressant drugs in animals. Reportedly the immobility time-shortening activity of an antidepressant drug as assayed by this test is highly correlated with the clinical efficacy of the drug in man (F. Borsini and A. Meli, 1988).
The rat was orally administered with the drug once daily for 10 consecutive days. On days 8-10 of administration, the rat was placed in a shuttle box in which it received 100 unescapable electroconvulsive shocks (ECS) daily. The day after the last ECS session, the active avoidance task was given 40 times and the number of failures to escape was recorded. Compound No. 2 was used as the test drug. As a reference drug, desipramine was used.

rats [2] = assay: Rat forced swimming test (immobility time); format: in vivo, rat (male Wistar); conditions: for Immobility Time (mean ± S.E.): N=10; for Effect on the immobility time in the forced swimming test (in words): Dunnett's test vs control
Experimental: as §1
Five-week old male Wistar rats were used. A cylindrical vessel measuring 18 cm in diameter and 40 cm deep was filled with 25° C. of water to the level of 17 cm from the bottom, and the rat was forced to swim in the water for 15 minutes (Session I). After 24 hours, the rat was put again in the vessel for 5 minutes and the duration of time the rat remained motionless without swimming was determined (Session II). The drug was orally administered twice, viz. at completion of Session I and 1 hr before the start of Session II. The drug was suspended in 0.5% methylcellulose (MC) solution for the administration. The control group was orally given the same volume of 0.5% MC solution. Compound No. 2 was used as the test drug. As reference drugs, desipramine, which is a representative antidepressant, and aniracetam and idebenone, both of which are enhancers of cerebral circulation and metabolism, were used. The statistical significance of between groups differences was analyzed by Dunnett's test.

[3] = Acute toxicity testing, oral, mice; set-up: species or system mouse (male ddy-strain); conditions: mouse, in vivo, male ddy mice, 2 weeks observation, probit method
Experimental: (1) Groups of five male ddy-strain mice aged 6-7 weeks were used. The animals were fasted for 16-18 hours (from the previous day) and then orally given the test compound. The LD50 values were calculated by the probit method based on the mortality observed within the succeeding period of 2 weeks.

[4] = Acute toxicity testing, oral, rats; set-up: species or system rat (male SD-strain); conditions: rat, in vivo, male SD rats, two-week observation, probit method
Experimental: (2) Groups of five male SD-strain rats weighing 280-360 g were used. The animals were fasted for 16-18 hours (from the previous day) and then orally given the test compound. The LD50 values were calculated by the probit method based on the mortality observed within the succeeding two-week period.

[5] = 1 mg/kg, oral twice, *p < 0.01 vs control
[6] = 3 mg/kg, oral twice, *p < 0.01 vs control
[7] = 10 mg/kg, oral twice, *p < 0.01 vs control
[8] = 30 mg/kg, oral twice, *p < 0.01 vs control
[9] = 100 mg/kg, oral twice, *p < 0.01 vs control

SMILES | No. of escape failures (mean ± S.E.) (rats [1]; 1 mg/kg) | No. of escape failures (mean ± S.E.) (rats [1]; 3 mg/kg) | Effect on failure to escape in the learned helplessness test (in words) (rats [1]; 10 mg/kg, oral) | No. of escape failures (mean ± S.E.) (rats [1]; 10 mg/kg, *p < 0.01) | Immobility Time (mean ± S.E.) (rats [2]; [5]) [s] | Immobility Time (mean ± S.E.) (rats [2]; [6]) [s] | Immobility Time (mean ± S.E.) (rats [2]; [7]) [s] | Immobility Time (mean ± S.E.) (rats [2]; [8]) [s] | Immobility Time (mean ± S.E.) (rats [2]; 50 mg/kg, oral twice, *p < 0.01 vs control) [s] | Effect on the immobility time in the forced swimming test (in words) (rats [2]; oral twice) | Immobility Time (mean ± S.E.) (rats [2]; [9]) [s] | Immobility Time (mean ± S.E.) (rats [2]; 300 mg/kg, oral twice) [s] | LD50 at 336 h [3] [mg/kg] | LD50 at 336 h [4] [mg/kg] | Immobility Time (mean ± S.E.) (rats [2]; 0.3 mg/kg, oral twice (after Session I and 1 hr before Session II)) [s]
CNCCCN1c2ccccc2CCc2ccccc21 [desipramine] | 32.10 ± 2.66 | 19.00 ± 5.65 | significant inhibitory effects on this failure to escape at 10 mg/kg | 0.60 ± 0.27 | 134.2 ± 20.8 | 83.2 ± 16.1 | 54.7 ± 15.8 | 34.8 ± 12.2 | 41.8 ± 9.8 | shortened the immobility time significantly and dose dependently at 3 mg/kg and higher doses | – | – | – | – | –
COC1=C(OC)C(=O)C(CCCCCCCCCCO)=C(C)C1=O [idebenone] | – | – | – | – | – | – | – | 178.2 ± 17.6 | – | did not influence the immobility time | 154.4 ± 17.4 | 180.9 ± 13.9 | – | – | –
O=C1CC[C@H](C(=O)N2CCCCC2)N1 [Compound No. 2, D-(+)-1-(2-Pyrrolidone-5-carbonyl)piperidine] | 20.20 ± 4.89 | 13.60 ± 4.15 | – | 0.90 ± 0.69 | 119.4 ± 11.0 | 82.2 ± 18.1 | 93.7 ± 13.4 | 61.3 ± 8.5 | – | – | 53.8 ± 12.6 | – | 4160 | ≥ 5000 | 153.0 ± 17.2
COc1ccc(C(=O)N2CCCC2=O)cc1 [aniracetam] | – | – | – | – | – | – | 168.9 ± 18.0 | 162.6 ± 14.5 | – | did not influence the immobility time | 175.6 ± 13.8 | – | – | – | –

Reference: patent US5652249A, “Method of treating depression” (Nippon Shinyaku Co., Inc., priority 1993, dated 1997)
